Measured values as given in publication PMC10709440, “High-throughput ligand profile characterization in novel cell lines expressing seven heterologous insect olfactory receptors for the detection of volatile plant biomarkers” (Scientific Reports, 2023).
Read-outs that look alike come from different tables or passages of the source.

How the values were obtained:
Drosophila OR49b = target: T1, Drosophila OR49b (Drosophila melanogaster, UniProt Q9V6H2); test: cell-based; details: for activation at 1 µM / activation at 10 µM / activation at 100 µM: HEK293; for Average response: mean of biological replicates
T1 construct: expressed in transfected cells
T1 sequence (Q9V6H2 1-375): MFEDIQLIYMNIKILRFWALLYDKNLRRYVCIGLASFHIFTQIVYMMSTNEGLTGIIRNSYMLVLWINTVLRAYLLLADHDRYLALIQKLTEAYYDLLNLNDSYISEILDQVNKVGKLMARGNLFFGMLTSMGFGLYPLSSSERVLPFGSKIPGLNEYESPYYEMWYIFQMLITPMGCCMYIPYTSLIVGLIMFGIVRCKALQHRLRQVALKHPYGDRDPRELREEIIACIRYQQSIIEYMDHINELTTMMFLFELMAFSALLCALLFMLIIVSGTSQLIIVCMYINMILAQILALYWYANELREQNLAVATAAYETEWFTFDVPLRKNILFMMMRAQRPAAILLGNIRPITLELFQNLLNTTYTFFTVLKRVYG
T1 sequence (Q9VNB5 1-486 partner): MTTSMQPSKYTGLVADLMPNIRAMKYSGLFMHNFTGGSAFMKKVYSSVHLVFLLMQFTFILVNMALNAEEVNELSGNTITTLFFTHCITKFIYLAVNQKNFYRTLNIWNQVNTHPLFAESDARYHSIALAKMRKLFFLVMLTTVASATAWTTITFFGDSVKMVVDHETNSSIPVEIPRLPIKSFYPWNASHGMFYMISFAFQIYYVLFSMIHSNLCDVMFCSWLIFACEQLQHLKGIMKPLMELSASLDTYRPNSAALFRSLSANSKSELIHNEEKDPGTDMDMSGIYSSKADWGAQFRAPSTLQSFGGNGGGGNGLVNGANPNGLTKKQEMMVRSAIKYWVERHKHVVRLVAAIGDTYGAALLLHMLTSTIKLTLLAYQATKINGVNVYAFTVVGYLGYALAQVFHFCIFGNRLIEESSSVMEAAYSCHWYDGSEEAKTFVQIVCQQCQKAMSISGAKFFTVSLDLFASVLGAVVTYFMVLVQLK
Protocol: (§1) These VUAA1 normalized ∆F values were used to compare the different receptors and ligands.
(§2) The concentration-dependent effect of the reference ligands on their cognate cell lines was examined in more detail. Twelve different ligand concentrations were measured on each cell line in an overall 0.01 μM to 100 μM concentration range with 5 repetitions with three technical replicates each time.
(§3) Twelve thousand to 18,000 cells were plated into each well of a black wall, transparent bottom 384-well microplate (Greiner) 48 h or 72 h before the measurements and were simultaneously treated with 1 μg/mL doxycycline. […] The plate has 24 columns, thus we could record responses in up to eight different cell lines in each plate. On the day of the experiment, the growth medium was replaced with 20 µL assay buffer/well (140 mM NaCl, 5 mM KCl, 2 mM CaCl2, 1 mM MgCl2, 5 mM HEPES-Na, 20 mM glucose, pH 7.3, 340 mOsm). […] Baseline fluorescence (F0) was recorded for 5 s, after which 7 µL VOC buffer (140 mM NaCl, 5 mM KCl, 2 mM CaCl2, 1 mM MgCl2, 5 mM HEPES-Na, 31 mM glucose, 0.1% DMSO, pH 7.3, 340 mOsm) was injected into each well in one row and the fluorescence response was recorded for an additional 30 s, at a rate of one read/sec. VOC solutions (VOC buffer with 4× concentration of the final measured VOC concentration, 9 µL/well was injected) were measured on the same wells in a second round with the same protocol. Each individual concentration of a specific VOC sample was recorded in three wells for the same cell line on the same microplate. The raw data were exported in xls file format, F0 and FMAX values, and the fluorescence intensity changes (∆F) were calculated in Excel (Microsoft) (Supplementary file Data summary.xlsx) using the following equation: ΔF=FMAX-F0/F0 (see also Fig. 1C). On each plate, we recorded the response of each cell line to 50 µM VUAA1. The average of these ∆F values of each cell line were used to calculate the VUAA1-normalized values for the rest of the plate, by dividing VOC response ∆F values by the average VUAA1 response ∆F value of the corresponding OR cell line. Each VOC-OR combination was measured three times as technical replicates. […] The average of these replicates were used as one ∆F and VUAA1-normalized ∆F in the following analysis.
(§4) In the next rows we tested the reference VOCs (or other VOCs known to activate the corresponding cell lines), in order to test if all cell lines are responsive. The remaining rows were used to test VOCs with unknown effect.
(§5) The recorded FMAX, F0, ∆F, VUAA1-normalized ∆F values, as well as the OR name, the name of the tested sample, and the final concentration for each well were copied into supplementary file Data summary.xlsx, that was used to summarize all the plates recorded. Here, the averages of the measurements were calculated for each receptor-VOC-concentration combination.

Drosophila OR71a = target: T2, Drosophila OR71a (Drosophila melanogaster, UniProt Q9VUK5); test: Calcium ion fluorescence (GCaMP6) assay, OR71a stable HEK293 cell line; type: cell-based; details: for activation at 1 µM / activation at 10 µM / activation at 100 µM: HEK293, read-out: OR71a response (VUAA1-normalized response); for Average response: VUAA1-normalized response, mean of biological replicates
T2 construct: expressed in transfected cells
T2 sequence (Q9VUK5 1-378): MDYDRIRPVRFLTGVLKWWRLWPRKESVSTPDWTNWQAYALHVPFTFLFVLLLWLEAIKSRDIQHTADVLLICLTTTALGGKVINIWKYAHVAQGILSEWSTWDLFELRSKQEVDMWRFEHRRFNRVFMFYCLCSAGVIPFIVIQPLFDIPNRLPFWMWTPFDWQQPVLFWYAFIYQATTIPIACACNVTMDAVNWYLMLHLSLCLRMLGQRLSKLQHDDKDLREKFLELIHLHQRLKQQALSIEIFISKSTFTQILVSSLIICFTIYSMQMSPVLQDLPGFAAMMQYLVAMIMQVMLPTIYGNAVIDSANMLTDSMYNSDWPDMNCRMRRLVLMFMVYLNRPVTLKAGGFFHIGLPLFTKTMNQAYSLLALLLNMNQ
T2 sequence (Q9VNB5 1-486 partner): T1 sequence (Q9VNB5 1-486 partner)
Protocol: as §1, §2, §3, §4, §5

[1] = VOC concentration 1 μM, read-out: OR49b response (VUAA1-normalized response)
[2] = VOC concentration 10 μM, read-out: OR49b response (VUAA1-normalized response)
[3] = VOC concentration 100 μM, read-out: OR49b response (VUAA1-normalized response)
[4] = OR49b cell line, odorant cc. 1 µM
[5] = OR49b cell line, odorant cc. 10 µM
[6] = OR49b cell line, odorant cc. 100 µM
[7] = ligand concentration 1 (unit not given), threshold 0.05, below shown as 0
[8] = ligand concentration 10 (unit not given), threshold 0.05, below shown as 0
[9] = ligand concentration 100 (unit not given), threshold 0.05, below shown as 0
[10] = ligand concentration 1 (unit not given), 0.05 threshold, values below shown as 0
[11] = ligand concentration 10 (unit not given), 0.05 threshold, values below shown as 0
[12] = ligand concentration 100 (unit not given), 0.05 threshold, values below shown as 0

Compound | activation at 1 µM (Drosophila OR49b; [1]) | activation at 10 µM (Drosophila OR49b; [2]) | activation at 100 µM (Drosophila OR49b; [3]) | Average response (Drosophila OR49b; [4]) | Average response (Drosophila OR49b; [5]) | Average response (Drosophila OR49b; [6]) | DF norm AVERAGE OR49b (Drosophila OR49b; [7]) | DF norm AVERAGE OR49b (Drosophila OR49b; [8]) | DF norm AVERAGE OR49b (Drosophila OR49b; [9]) | activation at 1 µM (Drosophila OR71a) | activation at 10 µM (Drosophila OR71a) | activation at 100 µM (Drosophila OR71a) | Average response (Drosophila OR71a; OR71a cell line, cc. 1 µM) | Average response (Drosophila OR71a; OR71a cell line, cc. 10 µM) | Average response (Drosophila OR71a; OR71a cell line, cc. 100 µM) | DF norm AVERAGE OR71a (Drosophila OR71a; [7]) | DF norm AVERAGE OR71a (Drosophila OR71a; [8]) | DF norm AVERAGE OR71a (Drosophila OR71a; [9]) | further results
CCCCCCCCCC=O [decanal] | 0% | 0% | 9% | 0.00 | 0.00 | 0.09 | 0 | 0 | 0.08966 | 0% | 0% | 0% | 0.00 | 0.00 | 0.0139 | 0 | 0 | 0 | 
CC(C)=CCC/C(C)=C/CC/C(C)=C/CO [e,e-farnesol] |  |  |  | 0.00 | 0.06 | 0.00 | 0 | 0.06141 | 0 |  |  |  | 0.00 | 0.0452 | 0.00 | 0 | 0 | 0 | OR49b response (VUAA1-normalized response) (Drosophila OR49b; VOC concentration 1 μM): 0.00; OR49b response (VUAA1-normalized response) (Drosophila OR49b; VOC concentration 10 μM): 0.06; OR49b response (VUAA1-normalized response) (Drosophila OR49b; VOC concentration 100 μM): 0.00; OR71a response (VUAA1-normalized response) (Drosophila OR71a; VOC concentration 1 μM): 0.00; OR71a response (VUAA1-normalized response) (Drosophila OR71a; VOC concentration 10 μM): 0.00; OR71a response (VUAA1-normalized response) (Drosophila OR71a; VOC concentration 100 μM): 0.00
CCCCCCCCCCC [undecane] |  |  |  | 0.00 | 0.00 | 0.0367 |  |  |  |  |  |  | 0.00 | 0.00 | 0.00847 |  |  |  | OR49b response (VUAA1-normalized) at 1 μM (Drosophila OR49b; OR49b cell line, VOC concentration 1 μM): 0.00; OR49b response (VUAA1-normalized) at 10 μM (Drosophila OR49b; OR49b cell line, VOC concentration 10 μM): 0.00; OR49b response (VUAA1-normalized) at 100 μM (Drosophila OR49b; OR49b cell line, VOC concentration 100 μM): 0.00; DF norm AVERAGE OR49b (Drosophila OR49b; [10]): 0; DF norm AVERAGE OR49b (Drosophila OR49b; [11]): 0; DF norm AVERAGE OR49b (Drosophila OR49b; [12]): 0; OR71a response (VUAA1-normalized) at 1 μM (Drosophila OR71a; OR71a cell line, VOC concentration 1 μM): 0.00; OR71a response (VUAA1-normalized) at 10 μM (Drosophila OR71a; OR71a cell line, VOC concentration 10 μM): 0.00; OR71a response (VUAA1-normalized) at 100 μM (Drosophila OR71a; OR71a cell line, VOC concentration 100 μM): 0.00; DF norm AVERAGE OR71a (Drosophila OR71a; [10]): 0; DF norm AVERAGE OR71a (Drosophila OR71a; [11]): 0; DF norm AVERAGE OR71a (Drosophila OR71a; [12]): 0
CC(=O)OCCC(C)C [isopentyl acetate] | 0% | 0% | 15% | 0.00 | 0.00 | 0.15 | 0 | 0 | 0.1516 | 0% | 0% | 0% | 0.0333 | 0.037 | 0.0218 | 0 | 0 | 0 | activation at 1 µM (Drosophila OR49b; 1 μM VOC, 50 μM VUAA1 = 1, read-out: OR49b Average response (VUAA1-normalized)): 0%; activation at 10 µM (Drosophila OR49b; 10 μM VOC, 50 μM VUAA1 = 1, read-out: OR49b Average response (VUAA1-normalized)): 0%; activation at 100 µM (Drosophila OR49b; 100 μM VOC, 50 μM VUAA1 = 1, read-out: OR49b Average response (VUAA1-normalized)): 15%
